Earlier results on one substance are cited in patent US11311621B2, “Organosilicon compound microparticles and process for their preparation” (SILICIUM ESPAÑA LABORATORIOS, S.L., priority 2018, dated 2022).

The conditions of this data set: 21° C., without irreversible polymerization after 2 months.

monomethylsilanetriol [MMST]: the “solubility of MMST in water without irreversible polymerization” value is “up to 21 mM” and the “solubility of MMST in water without irreversible polymerization (as silicon)” value is given as at most 588 mg Si/L.
